Test results as given in patent EP1383793B1 (priority 2000, dated 2001).
Like-named read-outs stand apart in the source and are kept apart here. One block for each compound: values may come before it. Residues, ends and D or L forms follow the SMILES beside them. No end group written: not given here. *: point of attachment. Biotin = O=C1N[C@H]2[C@H](CS[C@H]2CCCCC(=O)*)N1

Assays:
IR = molecular target: T1, IR (Homo sapiens, UniProt P06213); assay: Phage ELISA, binding of phage-displayed peptides to IR; settings: 405 nm
T1 construct: composed of the extracellular domains of both the α and β chains of the natural receptor; made in house; background b13 names human embryonic kidney 293 cells for the Bass et al. construct
Experimental: Amino acid sequences comprising the motif of Formulas 1 through 10. […] Fifty microliters of this solution was added to an appropriate number of wells in a 96-well microtiter plate (MaxiSorp plates, Nunc) and incubated overnight at 4°C. […] To isolate specific binders, each library was panned against a soluble form of the human IR. This IR is composed of the extracellular domains of both the α and β chains of the natural receptor, as well as the constant domain from immunoglobulin Fc, retaining the β-α-α-β structure described above. Because the IR is expressed in a eukaryotic system, disulfide bond formation and glycosylation patterns should mimic the wild-type receptor. The details of this recombinant protein construct are described in Bass et al. (1996). Phage ELISA. […] The wells were blocked with 200 µl of MPBS for 1.5 h at RT. […] Peptides were added as noted below and allowed to incubate at RT for 3 h. The plates were washed 3 times with PBST. A solution of 1:3000 diluted HRP:Anti-M13 conjugate at 100 µl per well of was added for 1 h. Following a repeat of the washing, 100 µl of ABTS was added for 15-30 min. […] Phage ELISA. […] Peptides were added as noted below and allowed to incubate at RT for 3 h. […] A solution of 1:3000 diluted HRP:Anti-M13 Conjugate at 100 µl per well of was added for 1 h. Following a repeat of the washing, 100 µl of ABTS was added for 15-30 min. The OD405 was measured using a SpectraMax 340 Microplate Spectrophotometer.

IGF-1R [1] = molecular target: T2, IGF-1R (Homo sapiens, UniProt P08069); assay: Phage ELISA, binding of phage-displayed peptides to IGF-1R; settings: 405 nm
T2 construct: Soluble IGF-1R was obtained from R&D Systems; purchased R&D Systems 391-GR/CF
Experimental: Figures 1A-10G. Amino acid sequences comprising the motif of Formulas 1 through 10. […] One hundred microliters of this solution was added to an appropriate number of wells in a 96-well microtiter plate (MaxiSorp plates, Nunc) and incubated overnight at 4°C. […] Subsequent steps are the same for pooled and clonal phage. […] Phage resuspended in MPBS were added to duplicate wells (100 µl/well) and incubated at RT for 1 h. […] Incubation was for 1 h at RT, followed by PBS washes as described. […] Phage ELISA. […] The wells were blocked with 200 µl of MPBS for 1.5 h at RT. Phage were added at 100 µl per well. Peptides were added as noted below and allowed to incubate at RT for 3 h. The plates were washed 3 times with PBST. A solution of 1:3000 diluted HRP:Anti-M13 conjugate at 100 µl per well of was added for 1 h. Following a repeat of the washing, 100 µl of ABTS was added for 15-30 min. […] Phage ELISA. […] Phage were added at 100 µl per well. Peptides were added as noted below and allowed to incubate at RT for 3 h. The plates were washed 3X with PBST. A solution of 1:3000 diluted HRP:Anti-M13 Conjugate at 100 µl per well of was added for 1 h. Following a repeat of the washing, 100 µl of ABTS was added for 15-30 min. The OD405 was measured using a SpectraMax 340 Microplate Spectrophotometer.

adipocytes = assay: 3H-glucose uptake into adipocytes (fat cell assay, FFC); assay type: cell-based, Mouse; parameters: key to Resp.: -2 (antagonist); +2 (agonist); settings: for Resp.: Subjective ranking, basal and sub maximal insulin, includes series A
[2] = molecular target: human IGF-1 receptor (HIGF-1R) (Homo sapiens, UniProt P08069); assay: 125I-IGF-1 competition binding assay on solubilised purified receptor
[3] = Precipitate in diluted peptide stock prior to adding to the fat cell assay; solubility under assay conditions; assay type: physicochemical; settings: diluted stock prior to adding to assay
[4] = molecular target: T3, human insulin receptor (HIR) (Homo sapiens, UniProt P06213); assay: 125I-insulin competition binding assay on solubilised purified receptor
T3 construct: made in house

IGF-1R [5] = molecular target: T2, IGF-1R; assay: IGF-1R peptide assay, time-resolved FRET, competition with biotinylated 20E2 (IC50); assay type: binding
Description: Assays have been developed using Time-Resolved Fluorescence Resonance Energy Transfer (FRET). These assays are not radioactive, homogeneous (no wash steps), and can be rapidly carried out in 96- or 384-well microtiter plate format facilitating their use in high-throughput screening assays for small organic molecules.
The IGF-1R was labeled with Europium (Eu) by EG&G Wallac.
The Streptavidin-Allophycocynanin (SA-APC) was obtained from Prozyme Cat. # PJ25S.
• a. Preparation of the Assay Mix. […] This mixture was allowed to pre-incubate at RT in the dark for 1-2 h before competitor was added. • b. […] 100 µl of Buffer (TBS pH 8.0 + 0.1 % BSA) were dispensed to wells in columns 1 through 11. Competitors and Buffer were added to Column 12 wells so that the total volume is 150 µl. • c. […] Compounds are dissolved in 100% DMSO. Therefore, 100 µl of Buffer (TBS pH 8.0 + 0.1 % BSA) with 4% DMSO are dispensed to wells in columns 1 through 10. […] Compounds (6 µl) are added into 144 µl Buffer (No DMSO) to Column 12 wells. • d. Dilutions were performed across columns on the plate. Once competitors were dispensed into Column 12 and mixed, 50 µl of the solution Column 12 were transferred to wells in 11 and mixed. 50 µl of the Column 11 mixture was transferred to Column 10 wells. This was repeated until 50 µl of Column 3 mixture was transferred to Column 2 wells. Once accomplished to Column 2, 50 µl from Column 2 were removed and discarded. Column 1 wells were reserved for No Competitor Wells. 100 µl volume was therefore maintained across all columns. • e. 50 µl of the Assay Mix was dispensed into wells on a new 96-well microtiter plate. 50 µl from the Dilutions Plate were then added to this plate. • f. […] This covered plate was allowed to incubate at RT overnight. • g. […] Compounds begin at 200 µM in a working concentration of 2% DMSO. Controls also contained 2% DMSO.

Compound: CC[C@H](C)[C@H](NC(=O)[C@H](C)NC(=O)[C@H](CC(=O)O)NC(=O)[C@H](Cc1ccc(O)cc1)NC(=O)[C@H](Cc1ccccc1)NC(=O)[C@H](CC(=O)O)NC(=O)[C@H](CCCCN)NC(=O)[C@H](Cc1ccc(O)cc1)NC(=O)[C@@H](N)CC(=O)O)C(=O)N[C@@H](CC(=O)O)C(=O)N[C@@H](CCC(N)=O)C(=O)N[C@@H](CC(C)C)C(=O)N[C@H](C(=O)N[C@@H](CCCNC(=N)N)C(=O)NCC(=O)N[C@@H](CO)C(=O)N[C@@H](C)C(=O)N[C@@H](CCCNC(=N)N)C(=O)N[C@@H](C)C(=O)NCC(=O)NCC(=O)N[C@H](C(=O)N[C@@H](CCCNC(=N)N)C(=O)N[C@@H](CC(=O)O)C(=O)N[C@@H](CCCCN)C(=O)N[C@@H](CCCCNC(=O)CCCC[C@@H]1SC[C@@H]2NC(=O)N[C@@H]21)C(N)=O)[C@@H](C)O)C(C)C [Clone 20E2] (H-DYKDFYDAIDQLVRGSARAGGTRDKK(Biotin)-NH2; N-terminus assumed)
Absorbance Values IR (IR): 1.01
Absorbance Values sIGF-1R (IGF-1R [1]): 2.15
Comments (dose response, effect at basal insulin) (adipocytes): Biphasic dose response curve (needs repeating)
ED50 (adipocytes; Estimated, not calculated values): Approx 20 µM
Resp. (adipocytes): +2

Absorbance Values IR (IR): 1.30
Absorbance Values sIGF-1R (IGF-1R [1]): 2.55
Ratio ([2]; Kd HIGF1R / Kd HIR): 20
Compound: CSCC[C@H](NC(=O)[C@@H](NC(=O)[C@H](CO)NC(=O)[C@H](CC(C)C)NC(=O)[C@H](CC(C)C)NC(=O)[C@H](C)NC(=O)[C@H](CO)NC(=O)[C@H](Cc1c[nH]c2ccccc12)NC(=O)[C@@H](N)CCCCN)C(C)C)C(=O)N[C@@H](CC(=O)O)C(=O)N[C@H](C(=O)NCC(=O)N[C@@H](Cc1ccccc1)C(=O)N[C@@H](Cc1ccc(O)cc1)C(=O)N[C@@H](C)C(=O)N[C@@H](Cc1c[nH]c2ccccc12)C(=O)N[C@@H](Cc1ccccc1)C(=O)N[C@@H](CC(=O)O)C(=O)N[C@@H](CC(=O)O)C(=O)N[C@@H](C)C(=O)N[C@H](C(=O)N[C@@H](CCCCN)C(=O)N[C@@H](CCCCNC(=O)CCCC[C@@H]1SC[C@@H]2NC(=O)N[C@@H]21)C(N)=O)C(C)C)[C@@H](C)O [Clone B8] (H-KWSALLSVMDTGFYAWFDDAVKK(Biotin)-NH2; N-terminus assumed)
Resp. (adipocytes): 0

Comments (precipitation) [3]: Precipitates
Compound: CC(C)C[C@H](NC(=O)[C@@H](NC(=O)[C@@H](N)CCCCN)C(C)C)C(=O)N[C@@H](CCC(N)=O)C(=O)N[C@@H](C)C(=O)N[C@@H](CCCNC(=N)N)C(=O)N[C@@H](Cc1c[nH]cn1)C(=O)NCC(=O)N[C@@H](CS)C(=O)N[C@@H](CC(=O)O)C(=O)N[C@@H](CO)C(=O)N[C@H](C(=O)N[C@@H](CO)C(=O)N[C@@H](CC(=O)O)C(=O)N[C@@H](CS)C(=O)N[C@@H](Cc1ccccc1)C(=O)N[C@@H](Cc1ccc(O)cc1)C(=O)N[C@@H](CCC(=O)O)C(=O)N[C@@H](Cc1c[nH]c2ccccc12)C(=O)N[C@@H](Cc1ccccc1)C(=O)N[C@@H](C)C(=O)N[C@@H](CCCCN)C(=O)N[C@@H](CCCCNC(=O)CCCC[C@@H]1SC[C@@H]2NC(=O)N[C@@H]21)C(N)=O)C(C)C [Clone D102] (H-KVLQARHGCDSVSDCFYEWFAKK(Biotin)-NH2; N-terminus assumed)
Resp. (adipocytes): 0

Kd ([4]; read-out: Kd (µM) HIR): 8.1 µM
Kd [2]: > 20000 nM
Compound: CSCC[C@H](NC(=O)[C@H](Cc1ccccc1)NC(=O)[C@H](Cc1c[nH]c2ccccc12)NC(=O)[C@H](CC(=O)O)NC(=O)[C@H](Cc1ccc(O)cc1)NC(=O)[C@H](Cc1ccccc1)NC(=O)[C@H](CC(N)=O)NC(=O)[C@H](CCCCN)NC(=O)[C@H](CC(=O)O)NC(=O)[C@H](C)N)C(=O)N[C@@H](C)C(=O)N[C@@H](C)C(=O)N[C@@H](CCCCN)C(=O)N[C@@H](CCCCNC(=O)CCCC[C@@H]1SC[C@@H]2NC(=O)N[C@@H]21)C(N)=O [Clone D115] (H-ADKNFYDWFMAAKK(Biotin)-NH2)

Kd ([4]; read-out: Kd (µM) HIR): 0.82 µM
Kd [2]: 9100 nM
Compound: CC(C)[C@H](NC(=O)[C@H](Cc1ccccc1)NC(=O)[C@H](Cc1c[nH]c2ccccc12)NC(=O)[C@H](CC(=O)O)NC(=O)[C@H](Cc1ccc(O)cc1)NC(=O)[C@H](Cc1ccccc1)NC(=O)[C@H](CC(N)=O)NC(=O)[C@H](CCC(=O)O)NC(=O)[C@H](Cc1c[nH]cn1)NC(=O)[C@H](Cc1ccccc1)NC(=O)[C@@H](N)CCCCN)C(=O)N[C@@H](CCCNC(=N)N)C(=O)N[C@@H](CCC(N)=O)C(=O)N[C@H](C(=O)N[C@@H](CO)C(=O)N[C@@H](CCCCN)C(=O)N[C@@H](CCCCNC(=O)CCCC[C@@H]1SC[C@@H]2NC(=O)N[C@@H]21)C(N)=O)C(C)C [Clone D117K]

IC50 (IGF-1R [5]): 5620 nM
Compound: CSCC[C@H](NC(=O)[C@H](CC(C)C)NC(=O)[C@H](CCCNC(=N)N)NC(=O)[C@H](CC(=O)O)NC(=O)[C@H](CC(C)C)NC(=O)[C@H](C)NC(=O)[C@H](CC(=O)O)NC(=O)[C@@H](N)CC(C)C)C(=O)N[C@@H](CCCNC(=N)N)C(=O)N[C@@H](Cc1ccc(O)cc1)C(=O)N[C@@H](Cc1ccccc1)C(=O)N[C@@H](CCC(=O)O)C(=O)N[C@@H](CCC(=O)O)C(=O)N[C@@H](CCCNC(=N)N)C(=O)N1CCC[C@H]1C(=O)N[C@@H](CO)C(=O)N[C@@H](CC(C)C)C(N)=O [Clone S173]

Kd ([4]; read-out: HIR affinity): 16 µM
IC50 (IGF-1R [5]): 1460 nM
Compound: CC(C)C[C@H](NC(=O)[C@@H]1CCCN1)C(=O)N[C@@H](C)C(=O)N[C@@H](CCC(=O)O)C(=O)N[C@@H](CC(C)C)C(=O)N[C@@H](Cc1c[nH]c2ccccc12)C(=O)N[C@@H](C)C(=O)N[C@@H](Cc1ccc(O)cc1)C(=O)N[C@@H](Cc1ccccc1)C(=O)N[C@@H](CCC(=O)O)C(=O)N[C@@H](Cc1c[nH]cn1)C(=O)N[C@@H](CO)C(=O)N[C@@H](CCC(=O)O)C(=O)N[C@@H](CCC(N)=O)C(=O)NCC(=O)N[C@@H](CCCNC(=N)N)C(=O)N[C@@H](CO)C(=O)N[C@@H](CO)C(=O)N[C@@H](C)C(=O)N[C@@H](Cc1c[nH]cn1)C(N)=O [Clone S174]

Kd ([4]; read-out: HIR affinity): > 20 µM
IC50 (IGF-1R [5]): ~100000 nM
Compound: AFYDWFAKK-NH2 [Clone S167]

Kd ([4]; read-out: HIR affinity): 2.7 µM
IC50 (IGF-1R [5]): 2040 nM
Compound: EHWNTVDPFYFTLFEWLRESG-NH2 [Clone S177]

Kd ([4]; read-out: HIR affinity): 0.13 µM
IC50 (IGF-1R [5]): 240 nM
Compound: EHWNTVDPFYQYFSELLRESG-NH2 [Clone S178]

Absorbance Values IR (IR): 1.43
Absorbance Values sIGF-1R (IGF-1R [1]): 2.08
Compound: KSMFVAGSDRWPGYGVLADWLKK [Clone F2]

Kd ([4]; read-out: HIR affinity): 0.47 µM
IC50 (IGF-1R [5]): 418 nM
Compound: NGVERAGTGDNFYDWFVAQLH-NH2 [Clone S176]

Kd ([4]; read-out: HIR affinity): 0.54 µM
IC50 (IGF-1R [5]): 5350 nM
Compound: QSDSGTVHDRFYGWFRDTWAS-NH2 [Clone S179]

IC50 (IGF-1R [5]): 184 nM
Compound: TFYSCLASLLTGTPQPNRGPWERCR [20C-3-G3-IGFR]
